Assay [1] has as its system SCC12 cells. Description: Colony formation assay. Type of assay: cell-based, human. The settings on record: 24 h treatment, then drug-free media 14 days. The protocol:
The effect of subamolide B on the long-term survival of SCC12 cells was assessed using colony formation assay in accordance with the reported procedure. […] […] The colonies composed of 50 or more cells were counted under microscopy. At least three independent assays were performed to calculate the numbers of colonies for statistical analysis.
Figure 1 Cytotoxic effect of subamolide B on human skin cancer cell lines. (a) Dose-dependent cytotoxicity of subamolide B. Human skin cancer cell lines, including A375 (melanoma), A-431 (epidermoid carcinoma), BCC-1/KMC (basal cell carcinoma) and SCC12 (cutaneous squamous cell carcinoma), normal human skin fibroblast cell lines CCD-966SK and WS1, and normal human lung fibroblast cell lines IMR-90, MRC-5, and WI-38 were treated with graded doses of subamolide B (0~20 μM), followed by cell viability determination via MTS assay as described in Section 2. […] 14 days later, the extent of subamolide B-mediated repression of SCC12 colony formation was evaluated by the numbers of colonies grown on culture dishes. […] (c) Quantitative analysis of subamolide B-mediated repression of SCC12 colony formation. The numbers of colonies shown in (b) were counted and the results were presented as the percentage of drug-treated groups compared to the drug-free controls. ***P < 0.001.

Assay [2] relates to MRC-5 normal lung fibroblasts. Description: Cell viability determination via MTS assay, MRC-5. The class given is cell-based. Conditions: Homo sapiens, MRC5; MRC-5, 48 h treatment; read-out: IC50 (reduce cell viability by 50%). The protocol:
(§1) The human cutaneous squamous cell carcinoma cell line SCC12 (kindly provided by Prof. Xiaoqi Wang, Northwestern University, USA) was grown in DMEM/F-12 (1 : 1) medium. The human malignant melanoma cell line A375 (ATCC number: CRL-1619), human epidermoid carcinoma cell line A-431 (ATCC number: CRL-1555), and HEK293T cells (ATCC number: CRL-11268) were grown in DMEM medium, whereas the human basal cell carcinoma cell line BCC-1/KMC [25] was cultured in RPMI1640 medium. […]
(§2) The effect of subamolide B on cell viability was mostly evaluated using CellTiter 96 AQueous Non-Radioactive Cell Proliferation Assay (MTS assay) kit (Promega, Madison, WI, USA) as previously described. […]
(§3) Figure 1 Cytotoxic effect of subamolide B on human skin cancer cell lines. […] 14 days later, the extent of subamolide B-mediated repression of SCC12 colony formation was evaluated by the numbers of colonies grown on culture dishes. […] (c) Quantitative analysis of subamolide B-mediated repression of SCC12 colony formation. The numbers of colonies shown in (b) were counted and the results were presented as the percentage of drug-treated groups compared to the drug-free controls. ***P < 0.001.
In general terms: Tetrazolium dyes change colour on reduction, which living cells bring about.

For assay [3], the system named is BCC-1/KMC (basal cell carcinoma) cells. Description: Cell viability determination via MTS assay, BCC-1/KMC. The settings on record: Homo sapiens, BCC1, 48 h treatment, read-out: IC50 (reduce cell viability by 50%). The class given is cell-based. On the procedure: as §1, §2, §3
In assay [4] the test system is CCD-966SK normal skin fibroblasts. Nature of the assay: Cell viability determination via MTS assay, CCD-966SK. Type of assay: cell-based. The settings on record: Homo sapiens, Skin fibroblast, 48 h treatment, read-out: IC50 (reduce cell viability by 50%). The protocol: as §1, §2, §3
The test system of assay [5] is WS1 normal skin fibroblasts. Nature of the assay: Cell viability determination via MTS assay, WS1. Conditions: Homo sapiens, Skin fibroblast; WS1, 48 h treatment; read-out: IC50 (reduce cell viability by 50%). The class given is cell-based. On the procedure:
as §1, §2, §3

In assay [6] the test system is IMR-90 normal lung fibroblasts. Description: Cell viability determination via MTS assay, IMR-90. Type of assay: cell-based. The settings on record: Homo sapiens; IMR-90, 48 h treatment; read-out: IC50 (reduce cell viability by 50%). On the procedure: as §1, §2, §3
In assay [7] the test system is SCC12 cells. Description: SCC12 cell viability after 24 h treatment (Supplementary Figure 3). Type of assay: cell-based. Conditions: Homo sapiens. On the procedure:
The effect of subamolide B on cell viability was mostly evaluated using CellTiter 96 AQueous Non-Radioactive Cell Proliferation Assay (MTS assay) kit (Promega, Madison, WI, USA) as previously described. Alternatively, propidium iodide (PI) exclusion assay was employed to determine cell viability. In brief, 4 × 10^5 SCC12 cells were seeded onto 6-well dishes and were subjected to 48 h treatment with subamolide B. Cells were then trypsinized, collected by centrifugation, and washed twice with PBS. Subsequently, cells were stained with 10 μg/ml of PI in PBS for 15 min in the dark, followed by flow cytometry analysis to determine the levels of PI incorporation.
Supplementary Figure Legends (Yang et al.) […]
Supplementary Figure 3. SCC12 cells were resistant to imiquimod-induced cytotoxicity.
SCC12 cells were treated with increasing doses of subamolide B (0~20 µM) (A) or
imiquimod (0~50 µg/ml) (B) for 24 h, and the viability of imiquimod-treated cells was
evaluated thereafter. It is noted that 20 µM (6.897 µg/ml) of subamolide B reduced the
viability of SCC12 cells to 50.47±5.89% compared to the drug-untreated control, whereas
65.00±4.32% of SCC12 cells were still viable after treatment with 50 µg/ml of imiquimod.

Assay [8] deals with SCC12 (cutaneous squamous cell carcinoma) cells. Nature of the assay: Cell viability determination via MTS assay, SCC12. The class given is cell-based. Conditions: Homo sapiens; SCC12, 48 h treatment; read-out: IC50 (reduce cell viability by 50%). On the procedure:
as §1, §2, §3

For a further assay, the system named is A375 (melanoma) cells. Description: Cell viability determination via MTS assay, A375. The settings on record: Homo sapiens, A-375; A375, 48 h treatment; read-out: IC50 (reduce cell viability by 50%). Type of assay: cell-based. The protocol: as §1, §2, §3
Assay [9] has as its system WI-38 normal lung fibroblasts. Description: Cell viability determination via MTS assay, WI-38. The class given is cell-based. The settings on record: Homo sapiens; WI-38, 48 h treatment; read-out: IC50 (reduce cell viability by 50%). The protocol:
as §1, §2, §3

Assay [10] deals with SCC12 cells. Nature of the assay: Annexin-V/propidium iodide dual staining assay (flow cytometry). Conditions: subamolide B 20 μM, 24 h. Type of assay: cell-based, human. On the procedure: Annexin V/PI dual staining assay was employed to determine the involvement of apoptosis in subamolide B-induced cell death, using ApoTarget Annexin-V-FITC Apoptosis kit (Biosource, Camarillo, CA, USA) as described previously. If required, the pan-caspase inhibitor z-VAD-fmk (20 μM) was added to SCC12 cells 2 h before subamolide B treatment.
Figure 2 Apoptosis is partly responsible for subamolide B-induced SCC12 cell death. ((a), (b)) Subamolide B induces dose- and time-dependent proteolytic processing/activation of caspases-8, -9, -4, and -3. […] Subamolide B (20 μM) was used to treat SCC12 cells for 24 h without or with cotreatment of the pan-caspase inhibitor z-VAD-fmk (20 μM). […] The levels of apoptotic cells were indicated as the percentage of all cell populations as shown in (d). ***P < 0.001. […]
Background: A flow cytometer gives signals particle by particle.

The subject of assay [11] is ATF6 transcriptional activity. Description: ATF6 transcriptional activity luciferase reporter assay (p5xATF6-GL3). Type of assay: cell-based. Conditions: Homo sapiens, SCC12 cells, 24 h, vs drug-untreated control. From the text: The ATF6 activity reporter plasmid p5xATF6-GL3 (Addgene plasmid 11976) carries five ATF6 response elements in tandem to drive the expression of firefly luciferase. The human CHOP promoter, which encompasses the region between −947 and +30 (+1 is the transcriptional start site) was PCR-amplified from the genomic DNA of peripheral blood mononuclear cells using the primer pair 5′-[…]-3′ (forward) and 5′-[…]-3′ (reverse). The 978-bp fragment was cloned into the luciferase reporter plasmid pGL4.18 vector (Promega, Madison, WI, USA) to generate the human CHOP promoter reporter plasmid (pCHOP-Luc). Luciferase activity assay was performed using Dual-Luciferase Reporter assay kit (Promega, Madison, WI, USA) as reported previously. Luciferase activity was normalized to Renilla luciferase activity, and final results were expressed as fold induction of the luciferase activity after subamolide B stimulation compared to that of drug-untreated control.
Figure 5 Subamolide B is an ER stress inducer. (a) Subamolide B upregulates signature ER stress markers GRP78 and CHOP. […] The level of CHOP mRNA in SCC12 cells after 24 h treatment with subamolide B (0~20 μM) was assessed by semiquantitative RT-PCR analysis. β-actin was used as the loading control. […] ATF6 transcriptional activity was then evaluated by luciferase activity assay. […]

In assay [12] the test system is A-431 (epidermoid carcinoma) cells. Nature of the assay: Cell viability determination via MTS assay, A-431. Type of assay: cell-based. Conditions: Homo sapiens; A-431, 48 h treatment; read-out: IC50 (reduce cell viability by 50%). The protocol: as §1, §2, §3

Molecules are shown by their SMILES. Where “and” joins values, the source holds several entries; their conditions need not be identical. Identical values can stand only once.

For orientation: IC50 means the concentration that inhibits the measured activity by half. Broadly, the viability is a read-out of living cells in per cent, often relative to untreated cells. What is called fold induction is the signal under treatment as a multiple of the control signal. `CCCCCCCCCCCCC/C=C1/C(=O)O[C@@](C)(OC)[C@@H]1O` [subamolide B, (3E,4R,5R)-3-tetradecylidene-4-hydroxy-5-methoxy-5-methyl-butanolide]: the “SCC12 colony formation, % of the drug-untreated control” value with SCC12 cells [1] (10 μM) is 58.93 ± 2.40%; in the assay with SCC12 cells [1] (20 μM) it was 28.20 ± 10.87%. Further, the concentration for half-maximal inhibition (IC50) in [2] was greater than 20 µM; in [3], greater than 20 µM; in assay [4], greater than 20 µM; in [5], greater than 20 µM; in assay [6], greater than 20 µM; with SCC12 cells [7] (SCC12, 24 h treatment, read-out: IC50 (SCC12 cytotoxicity)) it was 6.9 µg/mL and 20.3 µM. The IC50 in assay [8] was 9.12 µM; with A375 (melanoma) cells it was 17.6 µM; in [9], greater than 20 µM; in assay [12] it was 13.3 µM. The viability at 20 µM with SCC12 cells [7] (SCC12, subamolide B 20 μM (6.897 μg/ml), 24 h, read-out: SCC12 cell viability, % of the drug-untreated control) came to 50.5 ± 5.89%. The “level of apoptotic cells (percentage of all cell populations)” value in the assay on SCC12 cells [10] (cotreated with z-VAD-fmk 20 μM) was determined as 18.6 ± 0.42%; in the assay on SCC12 cells [10] (without z-VAD-fmk) it was 32.55 ± 3.65%. The compound also came in with a fold induction at 10 µM in assay [11] of 16.1 ± 2.06.
Consider `CC(C)Cn1cnc2c(N)nc3ccccc3c21` [imiquimod, reference compound], for which, in the assay with SCC12 cells [7] (SCC12, imiquimod 50 μg/ml, 24 h, read-out: SCC12 cell viability, % of the drug-untreated control), the viability at 50 µg/mL came out at 65 ± 4.32%.
